We go through 39 compounds from article PMC11249646, “Small-Molecule Disruptors of the Interaction between Calcium- and Integrin-Binding Protein 1 and Integrin αIIbβ3 as Novel Antiplatelet Agents” (ACS Pharmacology & Translational Science, 2024).

pIC50: −log10 of the molar value. Read-outs that look alike come from different tables or passages of the source.

Usually pIC50 stands for −log10 of the IC50, conventionally taken in molar units.

In this experiment the target is T1, CIB1 and αIIb interaction (CIB1-GST : F-αIIb peptide) (Homo sapiens, UniProt Q99828).
T1 construct: made in house; host or cells: BL-21 plus RIL cells (E. coli)
T1 sequence (Q99828 1-191): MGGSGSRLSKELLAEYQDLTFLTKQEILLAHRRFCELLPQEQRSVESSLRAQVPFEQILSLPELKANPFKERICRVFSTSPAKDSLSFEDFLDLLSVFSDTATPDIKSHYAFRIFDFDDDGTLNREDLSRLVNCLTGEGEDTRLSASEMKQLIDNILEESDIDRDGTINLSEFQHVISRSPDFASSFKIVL
Description: FP assay, 1536-well qHTS format (primary and confirmatory screen). The format is binding. The settings on record: for Efficacy (%): negative = inhibition; for Curve Class: negative sign = inhibitory curve; for pIC50: read-out: IC50. For orientation: qHTS replaces the single test concentration by a dilution series.

Where [1] appears, read: qHTS primary screen hits, Table S2.
The mark [2] stands for this setting: qHTS primary screen hits, Table S2, several classes where COUNT > 1.
Where [3] appears, read: qHTS primary screen of LOPAC/NPACT libraries.

As to `Oc1ccc(Cl)cc1Sc1cc(Cl)ccc1O` [NCGC00013679-06], under setting [1], the “Efficacy (%)” value is recorded as -30% and the pIC50 is 4.30. In addition, the “Curve Class” value under setting [2] is -2.4.

With `CCC(=O)NC(c1cccs1)c1cc(Cl)c2cccnc2c1O` (stereo not shown) [NCGC00188867-01], under setting [1], the “Efficacy (%)” value is on record as -29% and the pIC50 is 4.35. The “Curve Class” value under setting [2] is given as -2.4.

Regarding `Cc1cc(N2CCOCC2)cc2[nH]c(-c3c(NC[C@@H](O)c4cccc(Cl)c4)cc[nH]c3=O)nc12` [NCGC00346460-05], under setting [3], the “Efficacy (%)” value was -28%, the “Curve Class” value is on record as -1.4 and the pIC50 was 4.75.

For the compound `C=C1C(=O)O[C@H]2[C@H]1[C@@H](OC(=O)C(C)CO)C[C@@]1(C)[C@H](O)CCC(=O)[C@H]21` (stereo partly shown) [NCGC00169369-02], under setting [3], the “Efficacy (%)” value was -20%, the “Curve Class” value is reported as -1.4 and the pIC50 is 4.65.

Turning to `Cc1ccnc(N(C)C(=S)N2CCN(c3cccc(C(F)(F)F)c3)CC2)c1.O=C(O)C(F)(F)F` [NCGC00241084-01], under setting [1], the “Efficacy (%)” value is listed as -24%, the “Curve Class” value was -2.4 and the pIC50 was 4.30.

Consider `Cc1cccc(C)c1-n1c(=O)c2cnc(Nc3ccc(N4CCN(C)CC4)cc3)nc2n2c3ccccc3nc12` [NCGC00378811-02], for which, under setting [3], the “Efficacy (%)” value is listed as -28%, the “Curve Class” value is listed as -2.4 and the pIC50 was 4.25.

In the case of `O=C1C(SCCO)=C(SCCO)C(=O)c2ccccc21` [NCGC00015729-08], under setting [1], the “Efficacy (%)” value was -77%, the “Curve Class” value is -2.2 and the pIC50 is 4.35.

As for `CN1CCN(c2ccc(Nc3c4ccccc4nc4ccccc34)cc2)CC1.O=C(O)C(F)(F)F` [NCGC00167823-03], under setting [1], the “Efficacy (%)” value is -25% and the pIC50 is 4.25. Also, under setting [2], the “Curve Class” value is reported as -2.4.

`CCOc1cc(C(=O)N2CCC(N3CCN(C)CC3)CC2)ccc1Nc1ncc2c(n1)N(C1CCCC1)c1ccccc1C(=O)N2C` [NCGC00378965-03]: under setting [3], the “Efficacy (%)” value was -25%, the “Curve Class” value is on record as -2.4 and the pIC50 was 4.25.

As to `CCC(C)(C)C(=O)O[C@H]1C[C@@H](C)C=C2C=C[C@H](C)[C@H](CC[C@@H]3C[C@@H](O)CC(=O)O3)[C@H]21` [NCGC00017324-07], the “Efficacy (%)” value under setting [1] is given as -17%. Also, the “Curve Class” value under setting [2] was -2.4.

`Cc1cc(NS(=O)(=O)c2ccc(Nc3nc(-c4ccc(C)c(C)c4)cs3)cc2)no1.O=C(O)C(F)(F)F` [NCGC00249742-01]: under setting [1], the “Efficacy (%)” value is recorded as -32% and the pIC50 is 4.35. Also, the “Curve Class” value under setting [2] is -2.4.

As for `O=C(O)C(F)(F)F.c1nc(NCCc2c[nH]cn2)c2ccc(-c3ccc4c(c3)OCO4)cc2n1` [NCGC00185971-01], under setting [1], the “Efficacy (%)” value was -28% and the pIC50 is 4.10. Moreover, the “Curve Class” value under setting [2] is -2.4.

In the case of `O=C(Nc1ccc2ccccc2c1)Nc1nnc(-c2ccccn2)s1.O=C(O)C(F)(F)F` [NCGC00188528-01], under setting [1], the “Efficacy (%)” value is listed as -30% and the pIC50 is 4.25. Besides, the “Curve Class” value under setting [2] is -2.4.

For `COc1ccc(NS(=O)(=O)c2ccc(N)cc2)nn1` [NCGC00016324-09], under setting [1], the “Efficacy (%)” value is recorded as -139%, the “Curve Class” value is -3 and the negative logarithm of the IC50 (pIC50) is 4.40.

Consider `CN(C)c1cc2c(Nc3ccc4c(cnn4Cc4ccccc4)c3)ncnc2cn1` [NCGC00015468-06], for which, under setting [3], the “Efficacy (%)” value is -28%, the “Curve Class” value is given as -2.4 and the pIC50 is 4.25.

With `O=S(=O)(O)c1ccc2cc(/N=N/c3cc(S(=O)(=O)O)c4cccnc4c3O)ccc2c1` [NCGC00013917-09], under setting [1], the “Efficacy (%)” value is -57% and the pIC50 is 4.84.

With `O=C(Nc1nc(-c2ccccc2)cs1)c1ccncc1NS(=O)(=O)c1ccccc1.O=C(O)C(F)(F)F` [NCGC00344903-01], under setting [1], the “Efficacy (%)” value was -44% and the pIC50 is 4.35. In addition, the “Curve Class” value under setting [2] is on record as -2.2.

For `COc1cc2c(cc1OC)CN(CCc1ccc(NC(=O)c3cc(OC)c(OC)cc3NC(=O)c3cnc4ccccc4c3)cc1)CC2` [NCGC00346448-01], under setting [1], the “Efficacy (%)” value was -30% and the pIC50 is 4.37. Under setting [2], the “Curve Class” value is listed as -2.4.

Turning to `CC1=C(C(=O)N(C)C)C(c2ccccc2Br)N=C(Nc2nc3ccccc3o2)N1.O=C(O)C(F)(F)F` (stereo not shown) [NCGC00229733-01], under setting [1], the “Efficacy (%)” value was -27%, the “Curve Class” value is listed as -2.4 and the pIC50 is 4.25.

For `Cc1ccccc1NC(=O)Nc1ccc(CN2C(=O)N([C@@H](CC(C)C)C(=O)N[C@@H](CC(=O)O)c3ccccc3)C(=O)C2(C)C)cc1` [NCGC00386592-01], under setting [3], the “Efficacy (%)” value is on record as -28%, the “Curve Class” value is recorded as -2.4 and the pIC50 was 4.25.

Regarding `CCN1CCc2nc(N)oc2CC1.Cl` [NCGC00015131-04], under setting [3], the “Efficacy (%)” value is recorded as -13%, the “Curve Class” value is given as -2.4 and the pIC50 is 4.40.

As for `O=S(=O)(Nc1cc(O)cc2cccnc12)c1ccc(Cl)s1` [NCGC00161701-01], under setting [1], the “Efficacy (%)” value was -37% and the pIC50 is 4.30. Moreover, the “Curve Class” value under setting [2] is -2.4.

In the case of `O=C(O)c1cc(O)c2cccc(O)c2c1O[C@@H]1O[C@H](CO)[C@@H](O)[C@H](O)[C@H]1O` [NCGC00385595-01], under setting [3], the “Efficacy (%)” value is given as -31%, the “Curve Class” value is reported as -2.4 and the pIC50 is 4.40.

Turning to `Cc1c2c(=O)n(-c3ccccc3)[nH]c2cc(=O)n1Cc1ccco1.O=C(O)C(F)(F)F` [NCGC00248469-01], under setting [1], the “Efficacy (%)” value is -43% and the pIC50 is 4.25. In addition, the “Curve Class” value under setting [2] was -2.4.

In the case of `C#CCOC(=O)NCCCC[C@H](N)C(=O)O` [NCGC00351539-01], under setting [1], the “Efficacy (%)” value was -24% and the pIC50 was 4.25. Besides, the “Curve Class” value under setting [2] is reported as -2.4.

As to `CCC(C)(OC(C)=O)C(=O)O[C@H]1[C@H](OC(C)=O)C[C@@H]2[C@@](C)([C@@H]3C[C@H]4C=CO[C@H]4O3)[C@H](C)C[C@H](OC(C)=O)[C@@]2(COC(C)=O)[C@@]12CO2` (stereo partly shown) [NCGC00380906-01], under setting [3], the “Efficacy (%)” value is given as -20%, the “Curve Class” value is on record as -2.4 and the pIC50 was 5.00.

For the compound `Cc1cccc(S(=O)(=O)Nc2cnccc2C(=O)Nc2nc(-c3ccccc3)cs2)c1.O=C(O)C(F)(F)F` [NCGC00344904-01], under setting [1], the “Efficacy (%)” value is given as -43% and the pIC50 was 4.25. For the same compound, under setting [2], the “Curve Class” value is -2.4.

Regarding `NS(=O)(=O)c1ccc(Cc2cn(-c3nc(C(=O)O)cs3)c3ncccc23)cc1` [NCGC00356703-01], under setting [1], the “Efficacy (%)” value was -41% and the pIC50 is 4.35. Further, the “Curve Class” value under setting [2] was -2.2.

Take `C[C@](N)(Cc1ccc(O)c(O)c1)C(=O)O` [NCGC00024667-14]: under setting [1], the “Efficacy (%)” value was -24% and the pIC50 was 4.05. Moreover, the “Curve Class” value under setting [2] is -2.4.

Turning to `CC1CCCC[C@H]2C(=O)C=C[C@H](O)[C@@H]2CC(=O)O1` (stereo partly shown) [NCGC00169882-02], under setting [1], the “Efficacy (%)” value is -82%, the “Curve Class” value is -1.2 and the pIC50 was 4.55.

As for `Cc1ccn2c(Nc3ccc4c(c3)OCO4)c(-c3ccccn3)nc2c1.O=C(O)C(F)(F)F` [NCGC00241360-01], under setting [1], the “Efficacy (%)” value is reported as -51% and the pIC50 is 4.25. Moreover, the “Curve Class” value under setting [2] was -2.4.

Turning to `COC[C@H]1OC(=O)c2coc3c2[C@@]1(C)C1=C(C3=O)C2CCC(=O)[C@@]2(C)C[C@H]1OC(C)=O` (stereo partly shown) [NCGC00016094-12], where the note is “qHTS FP screen hits, Table S2”, the “Efficacy (%)” value is -33% and the pIC50 is 4.53. The “Curve Class” value (qHTS FP screen hits, Table S2, one class per curve where COUNT > 1) is recorded as -2.2.

Take `CO/N=C(\C(=O)N[C@@H]1C(=O)N2C(C(=O)O)=C(Cn3nnc(C)n3)CS[C@H]12)c1csc(N)n1` [NCGC00183016-01]: under setting [1], the “Efficacy (%)” value is on record as -171%, the “Curve Class” value is listed as -3 and the pIC50 was 4.05.

Consider `CN1CCN(c2nc3cc(C(F)(F)F)ccc3n3cccc23)CC1.O=C(O)/C=C\C(=O)O` [NCGC00015180-05], for which, under setting [1], the “Efficacy (%)” value was -17% and the pIC50 is 4.35. Also, the “Curve Class” value under setting [2] was -2.2.

Take `O=C(O)C(F)(F)F.O=S(=O)(Nc1ccc(C2CCNCC2)cc1)c1ccc(NCc2ccc(Br)cc2O)cc1` [NCGC00343916-01]: under setting [1], the “Efficacy (%)” value is on record as -31% and the pIC50 was 4.25. Besides, the “Curve Class” value under setting [2] was -2.4.

Consider `Cc1ccc(CNc2ncnc3ccc(-c4ccc(CO)o4)cc23)o1.O=C(O)C(F)(F)F` [NCGC00188654-01], for which, under setting [1], the “Efficacy (%)” value was -45%, the “Curve Class” value is listed as -2.2 and the pIC50 is 4.30.

As to `CC[n+]1c(-c2ccccc2)c2cc(N)ccc2c2ccc(N)cc21.[Br-]` [NCGC00091387-08], under setting [1], the “Efficacy (%)” value is recorded as -61% and the pIC50 is 4.25. The “Curve Class” value under setting [2] is given as -2.4.

In the case of `O=c1ccc2ccc(O)c(O)c2o1` [NCGC00015349-05], under setting [3], the “Efficacy (%)” value is listed as -13%, the “Curve Class” value is recorded as -2.4 and the negative-log IC50 (pIC50) is 4.15.

Turning to `CCC(=O)NC(c1ccco1)c1cc(Br)c2cccnc2c1O` (stereo not shown) [NCGC00183688-01], under setting [1], the “Efficacy (%)” value was -28%, the “Curve Class” value is listed as -2.4 and the pIC50 was 4.25.
